Entries after “also recorded” stand apart in the source; their conditions may differ. Like-named read-outs stand apart in the source and are kept apart here.
How the values were obtained:
[1] = tested on: mice with chronic constriction injury (CCI) to the sciatic nerve / naive mice; test: Thermal hyperalgesia (Hargreaves, paw withdrawal latency) after intrathecal drug treatment; type: in vivo, mouse; conditions: for reversal of thermal hyperalgesia ipsilateral to CCI: wild type mice, intrathecal in 10 μl, (R)-CPP 100 ρmol, peptide 1 n mole, K-93/KN-92 120 pmol
Method: (§1) Animals were initially anaesthetised with sodium pentobarbital (Sagatal; 0.01 ml/kg (1:4 in saline, i.p.; Rhône Mérieux, UK) and this was then supplemented with halothane O2 (Zeneca, UK). Under aseptic conditions, using a variation of the method of Bennett and Xie for rat [G. J. Bennett and Y. K. Xie, Pain 33, 87 (1988)], the sciatic nerve was exposed at the mid-thigh level proximal to the sciatic trifurcation. Three chromic catgut ligatures (5.0; Ethicon, Edinburgh) separated by 1 mm were tied loosely to constrict the […] as viewed under 40× magnification. Vascular supply was not compromised. The overlying muscle and skin were sutured and the animals were placed in a recovery cage.
(§2) Animals were tested for 6 days prior to surgery in order to establish stable baseline levels for each test and then every one or two days post-operatively (PO). The responses were compared to the average of the pre-surgery values and the contralateral control. The animals were examined daily to ensure that no autotomy was present.
Thermal hyperalgesia was monitored using Hargreaves' Thermal Stimulator (Linton Instruments, USA). The stimulus was applied to the mid-plantar surface of the hind paw. The withdrawal response was characterised as a brief paw flick. The latency of withdrawal was recorded for the ipsilateral (injured) and the contralateral hindpaws. The means of between 5 and 10 readings were recorded at 3-5 min intervals to ensure no hypersensitivity to the test was established. Mean basal values for pre-operative paw withdrawal latency were typically around 5 sec.
(§3) Baseline measurements were recorded for thermal hyperalgesia (Hargreaves' test) and mechanical allodynia (von Frey filament test) in mice which had undergone the chronic constriction injury and were at the peak of neuropathy. Mice were anaesthetised with halothane and O2. Drugs were injected intrathecally, in 10 μl saline, at the L4 level of the spinal cord using a 25 μl microsyringe [J. L. Hylden and G. L. Wilcox, Eur. J. Pharmacol., 67, 313 (1980)]. The experimenter was blind to the content of the injections so as to eliminate bias, and dye injections (Pontamine Sky Blue) were performed to determine the site of injection. 15 minutes following injection, mice were re-tested using the same procedures and measurements were taken to determine the effects of drug on hyperalgesia and allodynia. Animals were tested every 5 minutes until readings returned to baseline levels.

[2] = tested on: mice with chronic constriction injury (CCI) to the sciatic nerve / naive mice; test: Mechanical allodynia (von Frey filaments, paw withdrawal threshold) after intrathecal drug treatment; type: in vivo, mouse; conditions: for reversal of mechanical allodynia ipsilateral to CCI: wild type mice, intrathecal in 10 μl, (R)-CPP 100 ρmol, peptide 1 n mole, K-93/KN-92 120 pmol
Method: as §1, §2
Mechanical allodynia was measured as the withdrawal threshold to calibrated Semmes-Weinstein von Frey filaments (Stoelting, Wood Dale, Ill.) with a bending force of 0.22-84.96 g. The mice were placed in a small rectangular cage. The filaments were applied to the mid-plantar surface of the hindpaw from beneath until the filament started to bend. This stimulus was repeated 8-10 times at 1-2 sec intervals for both the injured and uninjured hindpaws. The mean threshold required to elicit a withdrawal response was recorded. The filaments were applied in ascending order, and a response was characterised as a brief paw flick. The withdrawal threshold was defined from the lower of two consecutive von Frey filaments that elicited a response. Data were expressed as the threshold indentation pressure (i.e. the bending force/the cross-sectional area at the tip of the filament). Mean basal values for pre-operative paw withdrawal threshold were typically around 600 mN.mm^−2.
as §3

CaM kinase II = test: Ex vivo CaM kinase II activity assay after topical application to dorsal spinal cord; type: in vivo, mouse; conditions: for activation of constitutive CaM kinase II activity, wild type versus PSD-95 mutant: naive mice, topical 15 min, NMDA 500 μM with glycine 100 μM, ionomycin 10 μM
Method: Following lumbar L3-6 laminectomy under anaesthesia, mice, which in some cases had previously received chronic constriction injury, were treated by topical application of agents to the dorsal surface of the spinal cord. […] Constitutive (autophosphorylated) and Ca^2+/CM-elicited activity of CaM II kinase [P. I. Hanson et al., Neuron 3, 59 (1989); P. M. Jones and S. J. Persaud, Am. J. Physiol. 274, E708 (1998)] were measured by the following procedure. Samples were rapidly homogenised on ice in 20 mM Na HEPES pH 7.5 with 5% glycerol, 1 mM EGTA, 1 mM dithiothreitol, 1 mM AEBSF, 2 μg.ml^−1 aprotinin, 10 μg.ml^−1 leupeptin, 2 μg.ml^−1 pepstatin, 50 μg.ml^−1 soybean trypsin inhibitor, 25 mM Na β-glycerophosphate, 1 mM Na orthovanadate, 1 mM Na F, 1 μM calyculin A, 1 μM cypermethrin. Following a 30 min incubation on ice with 0.25% CHAPS and clarification, samples were incubated at 4° C. for 2 hours with 3 μg.ml^−1 mouse anti-α-CaM kinase II IgG (clone CBα-2; Zymed) and then with excess Protein G-Sepharose for 1 hour. Aliquots of washed immunoprecipitate were incubated for 20 min at 30° C. (linear range of assay) with 50 μM autocamtide-2, 50 μM ATP (with [^33P] γ-ATP to 0.25 μCi/tube), 10 mM MgCl2 and 8 μg.ml^−1 purified bovine calmodulin (Sigma), in the presence of 0.5 μM PKC-α19-31 and 0.5 μM PKI6-22 amide (to suppress any PKC and PKA-mediated activity respectively) before termination with cold TCA (to 10%), centrifugation and spotting of the supernatant onto P81 phospho-cellulose paper.
Samples were washed extensively in 75 mM H3PO4 and dried before scintillation counting. Constitutive and maximal Ca^2+-evoked activity were measured in the absence and presence of 2 mM CaCl2 respectively. Zero time and substrate-free blanks were less than 2% of maximal activity. Parallel immunoblotting experiments were attempted with phospho-specific antisera for Thr^286-CaM kinase II (the key autophosphorylation site), but gave insufficient signal:noise ratios for further use.

NMDA receptors = conditions: rats, cited from earlier work
[3] = biological target: multi-protein complex comprising NMDA receptor (NR1, NR2B, PSD-95) (Mus musculus, UniProt P35438+Q01097); test: Ligand affinity chromatography of mouse brain DOC extracts (SDS-PAGE, Western blotting); type: binding
[4] = tested on: hippocampal CA1 region slices (MEK inhibitor)
Source text: Low resistance glass microelectrodes filled with ACSF were placed into stratum radiatum of the hippocampal CA1 region to record field excitatory postsynaptic potentials (fEPSPs) evoked by presynaptic stimulation pulses delivered once every 50 seconds to the Schaffer collateral/commissural fibers via a bipolar nichrome wire stimulating electrode. At the beginning of each experiment the intensity of presynaptic fiber stimulation was adjusted to evoke fEPSPs that were approximately half of the maximal fEPSP amplitude that could be evoked by strong intensity stimulation. High-frequency stimulation-induced LTP was elicited using two trains of 100 Hz stimulation (1 sec. in duration) delivered with an inter-train interval of 10 seconds. To elicit saturating levels of LTP we delivered 6, one-second-long trains of 100 Hz stimulation with an inter-train interval of 5 minutes. For statistical comparisons (unpaired t-tests, two-tailed, N=number of animals) we compared the average amount of potentiation present 55 to 60 minutes after the first high-frequency stimulation train or 40 to 45 minutes after low-frequency trains of stimulation. […] Similar results were obtained with both internal solutions and the results were combined. […] All experiments and initial data analysis were performed blind except for experiments done on 3 H-Ras^−/− mutant mice. […] All values are reported as mean±SEM.

[5] = tested on: mouse brain proteins / multi-protein complex (PSD-95, NMDA receptor); test: Peptide affinity chromatography of mouse brain DOC extracts (SDS-PAGE); type: binding; conditions: 0.5 ml mouse brain DOC extract, Coomassie stained SDS-PAGE
Method: Peptides were solubilised and coupled to affigel-10 in methanol at 5 mg/ml resin for 3 days at 4° C. with constant agitation and residual active side chains were blocked with 0.5 M Tris pH8.8 for 1 day at 4° C. followed by transfer of the resin to PBS.
Initial small-scale experiments were done using 0.5 ml brain DOC extract and 25 μl affigel-10 immobilised peptides. The resins were washed four times with 0.5 ml cold DOC buffer after an incubation period of four hours at 4° C. with constant agitation followed by SDS-PAGE analysis. Large scale samples were prepared by adding 0.5 ml NR2B 1477-1482 peptide derivatised affigel-10 with 50 ml DOC extract followed by an incubation overnight at 4° C. with constant agitation. The resin was then transferred into a chromatography column and washed to baseline with approximately 100 ml cold DOC buffer. Bound proteins were released from the resin by boiling for 30 minutes in 4% SDS-containing buffer and 20 μl aliquots were subsequently used for SDS-PAGE analysis and Western blotting (see Example 2).

[6] = CCI wild type mice, intrathecal
[7] = ligand coupled to PharmaLink resin
[8] = naive PSD-95 mutant mice, intrathecal NMDA
[9] = naive wild type mice, intrathecal NMDA 0.25 nmol in 10μl

O=C(O)[C@H]1CN(CCCP(=O)(O)O)CCN1 [(R)-CPP]
effect on contralateral responses (thermal) [1, 6]: no effect | effect on paw withdrawal latency in PSD-95 mutants ([1]; PSD-95 mutant mice with CCI, intrathecal 100 ρmol in 10 μl): had no effect; also recorded: unaffected | reversal of thermal hyperalgesia ipsilateral to CCI [1]: completely reversed | effect on contralateral responses (mechanical) [2, 6]: In no case was there any significant effect | effect on paw withdrawal threshold in PSD-95 mutants ([2]; PSD-95 mutant mice with CCI, intrathecal): unaffected | effect in naive or sham-operated mice ([2]; naive or sham-operated wild type or PSD-95 mutant mice (data not shown)): had no effect | reversal of mechanical allodynia ipsilateral to CCI [2]: completely reversed | effect on elevated proportion of constitutive CaM kinase II activity ipsilateral to CCI (CaM kinase II; wild type mice with CCI, topical application): entirely prevented

NC(CCCP(=O)(O)O)C(=O)O (stereo not drawn) [AP5]
effect on new learning (NMDA receptors; both types of task): severely impaired | effect on retention of a previously learned olfactory discrimination or watermaze task (NMDA receptors): no effect

NC(N)=NCCCCN=C(N)N [Arcaine]
proteins / multi-protein complex retained on immobilised ligand ([3]; ligand coupled to affigel-10): substantial amount of protein did interact with immobilised Arcaine, including NR1, NR2B and PSD-95

NC(CCCP(=O)(O)O)C(=O)O [D-AP5]
proteins / multi-protein complex retained on immobilised ligand [3, 7]: bound to an array of protein species | proteins / multi-protein complex retained on immobilised ligand ([3]; ligand coupled to affigel-10): ineffective in the isolation of any protein

COc1ccc2c(c1)[C@]13CCCC[C@@H]1[C@H](C2)N(C)CC3 [Dextromethorphan]
proteins / multi-protein complex retained on immobilised ligand [3]: only marginal amounts of both NR1 and NR2B were present, but surprisingly a comparatively large amount of PSD-95

NC1CCN(O)C1=O (stereo not drawn) [HA-966, 3-amino-1-hydroxy-2-pyrrolidone]
proteins / multi-protein complex retained on immobilised ligand [3, 7]: found positive for NMDA receptor channel components and the attached PSD-95 | proteins / multi-protein complex retained on immobilised ligand ([3]; ligand coupled to affigel-10): found positive for NMDA receptor channel components and the attached PSD-95

CC(C(O)c1ccc(O)cc1)N1CCC(Cc2ccccc2)CC1 (stereo not drawn) [Ifenprodil]
proteins / multi-protein complex retained on immobilised ligand [3]: capable of binding the multi-protein complex and many other molecules, though to a slightly lower degree than the Arcaine resin

COc1ccc(S(=O)(=O)Nc2ccccc2CN(C)C/C=C/c2ccc(Cl)cc2)cc1 [KN92]
reversal of thermal hyperalgesia ipsilateral to CCI [1]: to a smaller extent

COc1ccc(S(=O)(=O)N(CCO)c2ccccc2CN(C)C/C=C/c2ccc(Cl)cc2)cc1 [KN93]
reversal of thermal hyperalgesia ipsilateral to CCI [1]: reversal | reversal of mechanical allodynia ipsilateral to CCI [2]: reversal

NC(=O)C[C@H](N)C(=O)O [L-Asparagine]
proteins / multi-protein complex retained on immobilised ligand ([3]; ligand coupled to affigel-10): bound to an array of protein species

CN[C@H](CC(=O)O)C(=O)O [NMDA, N-methyl-D-aspartate]
effect on thermal behavioural responses in PSD-95 mutants [1, 8]: unaffected | induction of thermal hyperalgesia-like behavioural change [1, 9]: bilaterally mimicked | effect on mechanical behavioural responses in PSD-95 mutants [2, 8]: unaffected | induction of mechanical allodynia-like behavioural change [2, 9]: bilaterally mimicked | activation of constitutive CaM kinase II activity, wild type versus PSD-95 mutant (CaM kinase II): equivalent | proteins / multi-protein complex retained on immobilised ligand [3]: only marginal quantities of the multi-protein complex were retained

N#CC(=C(/N)Sc1ccccc1N)/C(C#N)=C(\N)Sc1ccccc1N [U0126]
fEPSPs after 5 Hz stimulation ([4]; slices from PSD-95 mutant mice continuously exposed to U0126, N=14 slices): 270±12 % of baseline | effect on induction of LTP by a brief train of 5 Hz stimulation ([4]; wild type slices, 20 μM): strongly suppressed the induction of LTP | fEPSPs after 5 Hz stimulation ([4]; wild type slices, continuously bathed in U0126 (20 *M) at least 60 min before 5 Hz stimulation, N=11 slices): 137±9 % of baseline

C[C@H](CCC(=O)O)C[C@H](C)C[C@H](C)C(=O)/C=C(\O)[C@H](C)C[C@H](C)C/C=C/[C@@H](C)[C@@H](O)[C@@H](C)[C@@H](O)C[C@@H]1CC[C@@](C)([C@H]2CC[C@@](C)([C@@H](C)O)O2)O1 [ionomycin]
activation of constitutive CaM kinase II activity, wild type versus PSD-95 mutant (CaM kinase II): equivalent

KLSSIESDV [NR2B (1474-1482), NR2B C-terminal peptide]
proteins bound by peptide covalently linked to affigel-10 [5]: did not show any binding pattern similar to the slightly shorter one

RRAIEREEGQLQLCSRHRES [NR1 C-terminal peptide, last 20 amino acids of NR1, 919-938]
proteins bound by peptide covalently linked to affigel-10 [5]: showed no evident binding pattern

SIESDV [NR2B (1477-1482)]
proteins bound by peptide covalently linked to affigel-10 [5]: revealed several bands at 75 and 100 kDa; also recorded: capable of not only purifying PSD-95 and other members of this family, but also the NMDA receptor itself

myristoyl-autocamtide 2-related inhibitory peptide
reversal of thermal hyperalgesia ipsilateral to CCI [1]: reversal | reversal of mechanical allodynia ipsilateral to CCI [2]: reversal
